Source: patent US12612412B2, “Antiviral heterocyclic compounds” (Enanta Pharmaceuticals, Inc., priority 2021, dated 2026)
pEC50: −log10 of the molar value.

Assays:
[1] = test system: genotype A, "Long" strain RSV; experiment: RSV-A assay (CPE protection in Hep-2 cells, ATPlite readout); type: cell-based, Human respiratory syncytial virus (HRSV); details: human respiratory syncytial virus, genotype A “Long” strain RSV, MOI 0.1, CPE protection, read-out: Human RSV-A (“Long”)
Outline: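 ATPlite luminescence (cellular ATP) served as the measure of cell health after 5 days of infection. Hep-2 cells at 8,000 per well received duplicate 2-fold compound dilutions plus virus at MOI 0.1, and EC50 was calculated from CPE protection.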

[2] = test system: recombinant HMPV CAN97-83 containing eGFP (MPV-GFP1); experiment: HMPV antiviral assay Method-A (MPV-GFP1 eGFP fluorescence in Vero E6 cells); type: cell-based, Human metapneumovirus (HMPV); details: human metapneumovirus, Vero C1008, 120 h, read-out: HMPV EC50
Outline: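 Vero E6 cells in serum-free OptiMEM with 0.5 μg/mL TPCK-trypsin were infected with eGFP-expressing HMPV CAN97-83 at MOI 0.05, with 8-point twofold dilutions from 8 or 2 μM (0.5% DMSO). After 5 days at 32° C, eGFP fluorescence gave % inhibition versus infected untreated wells. EC50 came from four-parameter logistic fits.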

SMILES: COc1cc(C(=O)NC[C@](O)(c2cc3c(c(-c4ccc(F)c(F)c4)n2)OC[C@]3(C)C(N)=O)C(F)(F)F)cc2cc(C(F)(F)F)cnc12 [Example 315]
- pEC50 [1]: > 6.70
- pEC50 [2]: > 6.30

SMILES: COc1cc(C(=O)NC[C@](O)(c2cc3c(c(-c4ccc(F)cc4)n2)OC[C@]3(C)C(N)=O)C(F)(F)F)cc2cn(C3CC3)nc12 [Example 24]
- pEC50 [1]: > 6.70
- pEC50 [2]: > 6.30

SMILES: C[C@H](COc1ccc(C(=O)NC[C@](O)(c2cc3c(c(-c4ccc(F)cc4)n2)OC[C@]3(C)C(N)=O)C(F)(F)F)cc1OC1CC1)OP(=O)(O)O [Example 3]
- pEC50 [1]: > 6.70
- pEC50 [2]: < 6.30

SMILES: Cc1cnc2c(NC(N)=O)cc(C(=O)NC[C@](O)(c3cc4c(c(-c5ccc(F)cc5)n3)OC[C@]4(C)C(N)=O)C(F)(F)F)cc2c1 [Example 223]
- pEC50 [1]: > 6.70
- pEC50 [2]: < 6.30

SMILES: COc1ccc(C(=O)NC[C@](O)(c2cc3c(c(-c4ccc(F)cc4)n2)OC[C@]3(C)C(N)=O)C(F)(F)F)cc1Nc1nccnn1 [Example 112]
- pEC50 [1]: > 6.70
- pEC50 [2]: < 6.30

SMILES: C[C@]1(C(N)=O)COc2c1cc([C@@](O)(CNC(=O)c1cc(C3CC3)c3nn(C(F)F)cc3c1)C(F)(F)F)nc2-c1ccc(F)c(Cl)c1 [Example 48]
- pEC50 [1]: > 6.70
- pEC50 [2]: > 6.30

SMILES: COc1cc(C(=O)NC[C@](O)(c2cc3c(c(-c4ccc(F)cc4)n2)OC[C@]3(C)C(N)=O)C(F)(F)F)cn2cc(C3CC3)nc12 [Example 217]
- pEC50 [1]: > 6.70
- pEC50 [2]: > 6.30

SMILES: Cc1cnc2c(Cl)cc(C(=O)NC[C@](O)(c3cc4c(c(-c5ccc(F)cc5)n3)OC[C@]4(C)C(N)=O)C(F)(F)F)cc2c1 [Example 70]
- pEC50 [1]: > 6.70
- pEC50 [2]: > 6.30

SMILES: COc1cc(C(=O)NC[C@](O)(c2cc3c(c(-c4ccc(F)cc4)n2)OC[C@]3(C)C(N)=O)C(F)(F)F)cc2cc(C3CC3)c(CO)nc12 [Example 166]
- pEC50 [1]: > 6.70
- pEC50 [2]: < 6.30

SMILES: COc1cc(C(=O)NC[C@](O)(c2cc3c(c(-c4ccc(F)c(Cl)c4)n2)OC[C@]3(C)C(N)=O)C(F)(F)F)cc2sc(C3CC3)nc12 [Example 19]
- pEC50 [1]: > 6.70
- pEC50 [2]: > 6.30

SMILES: C[C@]1(C(N)=O)COc2c1cc([C@@](O)(CNC(=O)c1cc(F)c3nn(C(F)F)cc3c1)C(F)(F)F)nc2-c1ccc(F)c(Cl)c1 [Example 45]
- pEC50 [1]: > 6.70
- pEC50 [2]: > 6.30

SMILES: Cc1cnc2c(NC(=O)NC3CC3)cc(C(=O)NC[C@](O)(c3cc4c(c(-c5ccc(F)c(Cl)c5)n3)OC[C@]4(C)C(N)=O)C(F)(F)F)cc2c1 [Example 219]
- pEC50 [1]: > 6.70
- pEC50 [2]: > 6.30

SMILES: Cc1cn2cc(C(=O)NC[C@](O)(c3cc4c(c(-c5ccc(F)cc5)n3)OC[C@]4(C)C(N)=O)C(F)(F)F)ccc2n1 [Example 50]
- pEC50 [1]: > 6.70
- pEC50 [2]: < 6.30

SMILES: C[C@]1(C(N)=O)COc2c1cc([C@@](O)(CNC(=O)c1cc(F)c3nc(N)sc3c1)C(F)(F)F)nc2-c1ccc(Cl)c(Cl)c1 [Example 306]
- pEC50 [1]: > 6.70
- pEC50 [2]: > 6.30

SMILES: [2H]C([2H])([2H])c1cc2cc(C(=O)NC[C@](O)(c3cc4c(c(-c5ccc(F)cc5)n3)OC[C@]4(C)C(N)=O)C(F)(F)F)cc(OC)c2nc1C [Example 143]
- pEC50 [1]: > 6.70
- pEC50 [2]: > 6.30

SMILES: Cc1cnc2c(NC(=O)N3CCC3)cc(C(=O)NC[C@](O)(c3cc4c(c(-c5ccc(F)cc5)n3)OC[C@]4(C)C(N)=O)C(F)(F)F)cc2c1 [Example 221]
- pEC50 [1]: > 6.70
- pEC50 [2]: < 6.30

SMILES: C[C@]1(C(N)=O)COc2c1cc([C@@](O)(CNC(=O)c1cc(OC3CC3)c3nn(C4CC4)cc3c1)C(F)(F)F)nc2-c1ccc(F)cc1 [Example 26]
- pEC50 [1]: > 6.70
- pEC50 [2]: > 6.30

SMILES: COc1cc(C(=O)NC[C@](O)(c2cc3c(c(-c4ccc(F)cc4)n2)OC[C@@]3(C(N)=O)C2CC2)C(F)(F)F)cc2cn(C3CC3)nc12 [Example 280]
- pEC50 [1]: > 6.70
- pEC50 [2]: > 6.30

SMILES: Cc1cn2cc(C(=O)NC[C@](O)(c3cc4c(c(-c5ccc(F)cc5)n3)OC[C@]4(C)C(N)=O)C(F)(F)F)cc(Cl)c2n1 [Example 55]
- pEC50 [1]: > 6.70
- pEC50 [2]: > 6.30

SMILES: C[C@]1(C(N)=O)COc2c1cc([C@@](O)(CNC(=O)c1cc(C3CC3)c3nn(C(F)F)cc3c1)C(F)(F)F)nc2-c1ccc(F)cc1 [Example 47]
- pEC50 [1]: > 6.70
- pEC50 [2]: > 6.30

SMILES: Cc1cnc2c(Nc3ccc(C)nn3)cc(C(=O)NC[C@](O)(c3cc4c(c(-c5ccc(F)cc5)n3)OC[C@]4(C)C(N)=O)C(F)(F)F)cc2c1 [Example 113]
- pEC50 [1]: > 6.70
- pEC50 [2]: > 6.30

SMILES: COc1cc(C(=O)NC[C@](O)(c2cc3c(c(-c4ccc(F)c(Cl)c4)n2)OC[C@]3(C)C(N)=O)C(F)(F)F)cc2cn(C3CCC3)nc12 [Example 324]
- pEC50 [1]: > 6.70
- pEC50 [2]: > 6.30

SMILES: C[C@]1(C(N)=O)COc2c1cc([C@@](O)(CNC(=O)c1ccc3c(c1)CN(C1CC1)C3=O)C(F)(F)F)nc2-c1ccc(F)cc1 [Example 34]
- pEC50 [1]: > 6.70
- pEC50 [2]: < 6.30
